Test results as given in patent publication US9453253B2, “Methods of using isotopically labelled isoniazid for the diagnosis of mycobacterial infections” (priority 2012, dated 2016).

How the values were obtained:
M. bovis BCG = format: cell-based
[1] = system: Mycobacterium tuberculosis H37Rv; format: cell-based; conditions: M. tuberculosis H37Rv, 1 mg/mL, 1 hour, head gas, control subtracted

For `[15NH2][15NH]C(=O)c1ccncc1` [^15N2-hydrazyl-INH], the “30/28 mass signal in nitrogen gas, dependency on CFU” value (M. bovis BCG) was “proportional to CFU/mL”, the “30/28 mass signal in nitrogen gas, dose dependence” value (M. bovis BCG) was “dependent upon dose” and the “30/28 mass signal in nitrogen gas, time dependence” value (M. bovis BCG) was “increase in the signal over the course of an hour, which then begins to decrease by 4 hours”. For the same molecule, the “30/28 mass signal in nitrogen gas, dependency on CFU” value [1] was “proportional to CFU/mL”.
